According to PMC7004070 (Chemmedchem, 2019):
Entries after “also recorded” stand apart in the source; their conditions may differ.

Legend:
CysLT1R = conditions: read-out: CysLT1R Ki; cited from earlier work
HepG2 cells = experiment: WST-1 assay in HepG2 cells; assay type: cell-based; conditions: n=4; for concentration with anti-proliferative / toxic effect: WST-1 assay, HepG2 cells, 24 h; for cytotoxicity compared to 3: WST-1 assay in HepG2 cells
recombinant human sEH = molecular target: T1, recombinant human sEH (Homo sapiens, UniProt P34913); experiment: sEH activity assay on recombinant protein; assay type: biochemical
T1 sequence (P34913 1-555): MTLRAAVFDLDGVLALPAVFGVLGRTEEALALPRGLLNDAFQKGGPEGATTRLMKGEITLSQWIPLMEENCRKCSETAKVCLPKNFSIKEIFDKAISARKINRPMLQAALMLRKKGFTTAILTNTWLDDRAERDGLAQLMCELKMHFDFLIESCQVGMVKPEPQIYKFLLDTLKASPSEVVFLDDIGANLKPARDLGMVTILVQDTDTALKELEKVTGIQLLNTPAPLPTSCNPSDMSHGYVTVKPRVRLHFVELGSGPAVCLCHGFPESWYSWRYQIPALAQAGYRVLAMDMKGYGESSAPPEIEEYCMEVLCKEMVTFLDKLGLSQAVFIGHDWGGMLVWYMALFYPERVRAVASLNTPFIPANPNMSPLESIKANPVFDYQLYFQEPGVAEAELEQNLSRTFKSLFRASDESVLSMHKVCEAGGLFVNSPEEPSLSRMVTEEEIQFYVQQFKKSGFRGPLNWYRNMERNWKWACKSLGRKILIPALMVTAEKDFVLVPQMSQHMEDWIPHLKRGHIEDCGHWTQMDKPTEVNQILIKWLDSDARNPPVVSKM

human full-length FXR = molecular target: T2, human full-length FXR (Homo sapiens, UniProt Q96RI1); experiment: full-length FXR-BSEP reporter gene assay; assay type: cell-based; conditions: for Emax: HeLa, read-out: FXR max. rel. act.; for FXR EC50: full-length FXR-BSEP reporter gene assay, HeLa cells, mean±S.E.M., n≥3, inactive = no significant activation up to 30 μM
T2 sequence (Q96RI1 1-486): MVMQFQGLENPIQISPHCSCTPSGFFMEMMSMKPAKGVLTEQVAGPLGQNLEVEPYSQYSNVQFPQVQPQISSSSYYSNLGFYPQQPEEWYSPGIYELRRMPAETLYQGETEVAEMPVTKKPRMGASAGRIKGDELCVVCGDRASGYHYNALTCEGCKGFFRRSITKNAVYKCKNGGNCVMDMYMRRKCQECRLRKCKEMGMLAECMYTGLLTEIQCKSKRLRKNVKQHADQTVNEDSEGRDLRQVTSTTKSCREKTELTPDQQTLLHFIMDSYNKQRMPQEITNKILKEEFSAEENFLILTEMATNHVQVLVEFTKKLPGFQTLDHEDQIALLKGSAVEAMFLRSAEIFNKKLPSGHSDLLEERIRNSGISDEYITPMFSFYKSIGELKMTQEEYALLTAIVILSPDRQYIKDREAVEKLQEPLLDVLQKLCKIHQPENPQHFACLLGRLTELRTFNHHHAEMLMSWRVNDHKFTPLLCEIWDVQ
T2 sequence (P19793 1-462 partner): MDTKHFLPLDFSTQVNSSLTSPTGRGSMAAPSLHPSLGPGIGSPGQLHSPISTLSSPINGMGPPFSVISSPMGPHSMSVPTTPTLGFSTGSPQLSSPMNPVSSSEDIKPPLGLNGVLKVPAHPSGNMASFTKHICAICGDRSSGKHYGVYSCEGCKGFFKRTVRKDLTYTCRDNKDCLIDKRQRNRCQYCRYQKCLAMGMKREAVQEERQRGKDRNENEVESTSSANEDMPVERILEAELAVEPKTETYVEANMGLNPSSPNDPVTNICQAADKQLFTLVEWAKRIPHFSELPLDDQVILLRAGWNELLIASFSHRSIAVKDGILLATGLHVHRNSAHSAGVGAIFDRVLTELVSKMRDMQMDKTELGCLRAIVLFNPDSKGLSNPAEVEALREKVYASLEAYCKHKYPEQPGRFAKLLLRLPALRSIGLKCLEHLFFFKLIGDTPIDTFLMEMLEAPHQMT

[1] = test system: nuclear receptors related to FXR (PPARα, PPARγ, PPARδ, LXRα, LXRβ, RXRα, RARα, CAR); experiment: Gal4 hybrid reporter gene assays for nuclear receptors related to FXR; assay type: cell-based, human; conditions: HEK293T, mean, n=2
human CysLT1R = molecular target: T3, human CysLT1R (Homo sapiens, UniProt Q9Y271); experiment: CysLT1R antagonism assay, cell-based
T3 sequence (Q9Y271 1-337): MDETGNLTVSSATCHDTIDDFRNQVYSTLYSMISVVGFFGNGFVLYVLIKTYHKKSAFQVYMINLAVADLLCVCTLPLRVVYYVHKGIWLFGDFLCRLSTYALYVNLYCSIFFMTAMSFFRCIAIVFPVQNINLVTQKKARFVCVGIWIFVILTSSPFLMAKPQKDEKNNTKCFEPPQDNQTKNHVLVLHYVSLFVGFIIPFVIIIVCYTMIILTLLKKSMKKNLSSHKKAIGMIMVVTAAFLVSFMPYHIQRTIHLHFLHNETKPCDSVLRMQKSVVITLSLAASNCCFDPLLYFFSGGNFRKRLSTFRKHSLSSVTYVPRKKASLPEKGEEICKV

[2] = molecular target: T4, sEH in HepG2 cell homogenate (Homo sapiens, UniProt P34913); experiment: Cellular sEH assay: conversion of; assay type: cell-based; conditions: 10 μM; HepG2 homogenates; (±)14(15)-EET-d11; n≥4
T4 sequence (P34913 1-555): T1 sequence (P34913 1-555)

[3] = test system: FXR regulated genes (OSTα, SHP, CYP7A1) in HepG2 cells; assay type: cell-based; conditions: 10 μM, 12 h, qPCR, n=3
RARα = molecular target: T5, RARα (Homo sapiens, UniProt P10276); experiment: Gal4 hybrid reporter gene assay for RARα in HEK293T cells; assay type: cell-based; conditions: mean, n=2
T5 sequence (P10276 183-417 limits assumed): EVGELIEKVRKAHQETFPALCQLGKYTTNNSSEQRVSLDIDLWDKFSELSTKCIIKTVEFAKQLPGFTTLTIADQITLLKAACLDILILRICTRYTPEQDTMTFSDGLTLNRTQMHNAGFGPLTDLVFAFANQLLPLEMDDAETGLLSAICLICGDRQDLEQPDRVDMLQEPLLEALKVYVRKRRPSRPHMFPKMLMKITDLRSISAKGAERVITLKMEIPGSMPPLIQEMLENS

Row | IC50 (recombinant human sEH) [µM] | Structure (SMILES) | EC50 (human full-length FXR) [nM] | Emax (human full-length FXR) [%] | further results
1 | – | COc1cc(C(=O)NS(=O)(=O)c2ccccc2C)ccc1Cc1cn(C)c2ccc(NC(=O)OC3CCCC3)cc12 [compound 3, Zafirlukast, reference compound] | – | – | Ki (CysLT1R): 0.3 nM; concentration with anti-proliferative / toxic effect (HepG2 cells): ≥ 1 µM
2 | > 30 | COc1cc(C(=O)O)ccc1Cc1cn(C)c2ccc(NC(=O)c3ccc(C(C)(C)C)cc3)cc12 [compound 5, 4‐((5‐(4‐(tert‐Butyl)benzamido)‐1‐methyl‐1H‐indol‐3‐yl)methyl)‐3‐methoxybenzoic acid] | 600 ± 200 | 29 | –
3 | 3.3 ± 0.6 | COc1cc(C(=O)O)ccc1Cc1cn(C)c2ccc(NC(=O)c3c(-c4c(Cl)cccc4Cl)noc3C(C)C)cc12 [compound 6, 4‐((5‐(3‐(2,6‐Dichlorophenyl)‐5‐isopropylisoxazole‐4‐carboxamido)‐1‐methyl‐1H‐indol‐3‐yl)methyl)‐3‐methoxybenzoic acid] | – | – | FXR EC50 (human full-length FXR): inactive
4 | > 100 | COc1cc(C(=O)O)ccc1Cc1cn(C)c2ccc(NC(=O)c3ccncc3)cc12 [compound 7, 4‐((5‐(Isonicotinamido)‐1‐methyl‐1H‐indol‐3‐yl)methyl)‐3‐methoxybenzoic acid] | 910 ± 60 | 15 | –
5 | 12 ± 1 | Cn1cc(Cc2ccc(C(=O)O)cc2)c2cc(NC(=O)c3ccc(C(C)(C)C)cc3)ccc21 [compound 8, 4‐((5‐(4‐(tert‐Butyl)benzamido)‐1‐methyl‐1H‐indol‐3‐yl)methyl)benzoic acid] | > 10000 | – | –
6 | 86 ± 10 | COc1ccc(C(=O)O)cc1Cc1cn(C)c2ccc(NC(=O)c3ccc(C(C)(C)C)cc3)cc12 [compound 9, 3‐((5‐(4‐tert‐Butylbenzamido)‐1‐methyl‐1H‐indol‐3‐yl)methyl)‐4‐methoxybenzoic acid] | – | – | FXR EC50 (human full-length FXR): inactive
7 | 22 ± 3 | Cn1cc(Cc2cccc(C(=O)O)c2)c2cc(NC(=O)c3ccc(C(C)(C)C)cc3)ccc21 [compound 10, 3‐((5‐(4‐(tert‐Butyl)benzamido)‐1‐methyl‐1H‐indol‐3‐yl)methyl)benzoic acid] | 1190 ± 80 | 18 | –
8 | > 100 | COc1cc(C(=O)O)ccc1Cc1cn(C(C)C)c2ccc(NC(=O)c3ccc(C(C)(C)C)cc3)cc12 [compound 11, 4‐((5‐(4‐(tert‐Butyl)benzamido)‐1‐isopropyl‐1H‐indol‐3‐yl)methyl)‐3‐methoxybenzoic acid] | 2300 ± 100 | 11 | –
9 | > 100 | COc1cc(C(=O)O)ccc1Cn1ccc2cc(NC(=O)c3ccc(C(C)(C)C)cc3)ccc21 [compound 12, 4‐((5‐(4‐(tert‐Butyl)benzamido)‐1H‐indol‐1‐yl)methyl)‐3‐methoxybenzoic acid] | 9200 ± 800 | 23 | –
10 | – | COc1cc(C(=O)O)ccc1Cn1ccc2ccc(NC(=O)c3ccc(C(C)(C)C)cc3)cc21 [compound 13, 4‐((6‐(4‐(tert‐Butyl)benzamido)‐1H‐indol‐1‐yl)methyl)‐3‐methoxybenzoic acid] | – | 15 | selectivity over nuclear receptors related to FXR [1]: selective; also recorded: high selectivity; IC50 (human CysLT1R): ~1000 nM; cytotoxicity compared to 3 (HepG2 cells): reduced cytotoxicity; also recorded: strongly reduced toxicity; concentration with anti-proliferative / toxic effect (HepG2 cells): > 10 µM; conversion of EET to DHET (cellular sEH inhibition) [2]: blocked EET conversion to DHETs; higher potency on FXR compared to 16 (human full-length FXR; 13 compared to 16): approx. 10 fold; improvement of EC50 value on FXR compared to 3 (human full-length FXR; compared to 3): 15 fold; OSTα expression [3]: induced expression; SHP expression [3]: induced expression
11 | 18 ± 5 | COc1cc(C(=O)O)ccc1Cn1cnc2ccc(NC(=O)c3ccc(C(C)(C)C)cc3)cc21 [compound 14, 4‐((6‐(4‐(tert‐Butyl)benzamido)‐1H‐benzoimidazol‐1‐yl)methyl)‐3‐methoxybenzoic acid] | 5300 ± 400 | 26 | decrease of activity on sEH compared to 13 (recombinant human sEH; benzimidazole 14 vs indole 13): approx. 10 fold
12 | 4.3 ± 0.4 | CC(C)(C)c1ccc(C(=O)Nc2ccc3ccn(Cc4cccc(C(=O)O)c4)c3c2)cc1 [compound 15, 3‐((6‐(4‐(tert‐Butyl)benzamido)‐1H‐indol‐1‐yl)methyl)benzoic acid] | – | – | FXR EC50 (human full-length FXR): inactive
13 | – | CC(C)(C)c1ccc(C(=O)Nc2ccc3ccn(Cc4ccc(C(=O)O)cc4)c3c2)cc1 [compound 16, 4‐((6‐(4‐(tert‐Butyl)benzamido)‐1H‐indol‐1‐yl)methyl)benzoic acid] | – | 24 | selectivity over nuclear receptors related to FXR [1]: selective; also recorded: high selectivity; RARα activation (RARα): considerable RARα agonism; also recorded: marked RARα activation; IC50 (human CysLT1R): > 1000 nM; cytotoxicity compared to 3 (HepG2 cells): reduced cytotoxicity; also recorded: strongly reduced toxicity; concentration with anti-proliferative / toxic effect (HepG2 cells): > 10 µM; conversion of EET to DHET (cellular sEH inhibition) [2]: blocked EET conversion to DHETs; OSTα expression [3]: induced expression; SHP expression [3]: induced expression
